Reference: patent publication US7094868B2, “Peptides for recognition and targeting of GLIAL cell tumors” (Auburn University, priority 2002, dated 2006)

Columns and labels:
[1] = system: F98 glioma cells; test: Evaluation of binding selectivity: phage output/input titer on F98 glioma; format: cell-based, rat; settings: eluted phage
Method: (§1) All analyses were performed in triplicate.

[2] = system: CTX TNA2 astrocytes; test: Evaluation of binding selectivity: phage output/input titer on normal astrocytes; format: cell-based, rat; settings: for binding selectivity, RG2 glioma versus normal astrocytes: cell-attached phage recovered by elution, FIGS. 7, 10
Method: as §1

[3] = system: RG2 glioma cells; test: Evaluation of binding selectivity: phage output/input titer, RG2 glioma versus control cell lines overall; format: cell-based, rat
Method: as §1

[4] = system: RG2 glioma cells; test: Quantitation of binding specificity: phage output/input titer on RG2 glioma cells; format: cell-based, rat; settings: cell-surface-bound phage eluted with low pH buffer; 10^9 cfu/flask, 1 hour, room temperature; FIG. 3
Method: as §1

[5] = system: BRL 3A hepatocytes, H9c2(2-1) cardiac myoblasts, 27FR fibroblasts; settings: cell-attached phage recovered by elution; FIGS. 4, 7, 10
Method: In order to evaluate the binding specificity conferred by the peptides, various phage clones were incubated with RG2 glioma cells. Two control phage were compared to the RG2 affinity-selected candidate phage clones (see FIG. 3). […] For the quantitation assay, RG2 cells were grown in 25 cm^2 flasks for approximately 48 hours to sub-confluence. One hour prior to application of phage, the normal media was replaced with serum-free media and incubation was continued. Each phage clone (10^9 cfu/flask) was added to a flask of cells in 2 ml of washing/blocking buffer and incubated for 1 hour at room temperature. Following incubation, unbound phage were removed by washing the cells remaining in the flasks 8 times with 4 ml of cold washing/blocking buffer for 5 minutes per wash. Cell surface-bound phage were recovered by incubation with 1 ml of elution buffer for 10 minutes on ice. The eluate was removed from flasks and neutralized with 1 M Tris. Cells were washed again two times with washing/blocking buffer and lysed by incubation with 1 ml lysis buffer for 30 min at room temperature; the lysate was processed as above. Phage titers were determined by infection of bacteria and are presented in FIG. 3 as a ratio of output to input phage. All analyses were performed in triplicate. […]

[6] = system: human glioma cell lines SW1088, M059K, A172, and HS 683; test: Phage clone binding to human glioma cell lines; format: cell-based; settings: A172, HS 683
Method: The ELRGDSLP phage clone was tested further for binding to four different human glioma cell lines: SW1088, M059K, A172, and HS 683, all obtained from the ATCC.

[7] = system: αv, β3, and β1 integrins; test: Affinity precipitation of RG2 cell membrane proteins with cross-linked phage, Western blot with anti-integrin antibodies; format: binding, rat
Method: Experiments were performed to isolate and purify the RG2-cell-specific protein that was responsible for binding of the ELRGDSLP phage clone to glioma cells. The basic approach was to perform precipitation of RG2 cell membrane proteins by using the phage clone to form an affinity matrix.
To prepare the RG2 cell membrane proteins, RG2 glioma cells were grown in 25 cm^2 tissue culture flasks. The growing medium was removed from the flasks and cells were collected in PBS buffer containing protease inhibitors. Cells were then pelleted by centrifugation and lysed with octylglucoside buffer (10 mM Tris-HCl, pH 7.5, 140 mM NaCl, 10 mM octylglucoside (Sigma), and protease inhibitor cocktail (Sigma); 5 ml per flask). The cell lysate was clarified by centrifugation and the supernatant containing cell membrane proteins was then used for isolation of glioma-specific receptor proteins.
Cross-linked phage were prepared by the method of Smith et al. (1998) (J. Immunol. Methods 215: 151–161) using a water-soluble, multifunctional dextran polymer. After that, ELRGDSLP cross-linked phage were incubated with the clarified lysate of RG2 cells. Following incubation, the crosslinked phage-receptor protein complexes were pelleted by centrifugation at 10,000 rpm for 15 minutes. Phage particles that were not cross-linked remained in the buffer and were discarded. […]

**Q.** How did the “binding to F98 glioma compared to RG2 glioma (in words)” value ([1]; FIG. 7) turn out when “DSTKSGNM [phage clone displaying the synthetic peptide on major coat protein pVIII]” was run?
**A.** even better binding

**Q.** And the “binding selectivity, RG2 glioma versus normal astrocytes” value [2]?
**A.** 25 fold

**Q.** “DYDMTKNT [phage clone displaying the synthetic peptide on major coat protein pVIII]” was tested. Which “binding selectivity for glioma cells compared to control cells (in words)” value ([3]; RG2 and F98 glioma, astrocytes, myoblasts, hepatocytes, fibroblasts) did it give?
**A.** very selective binding

**Q.** VGLPEHTQ was tested. Which “ratio of output to input phage (apparent binding affinity) on RG2 glioma cells” value [4] did it give?
**A.** highest

**Q.** What about the “binding to F98 glioma as % of RG2-binding level” value ([1]; FIG. 4) of the same sequence?
**A.** 41%

**Q.** And the “binding to normal astrocytes as % of RG2-binding level” value ([2]; eluted phage, FIG. 4)?
**A.** 64%

**Q.** And the “binding selectivity, RG2 glioma versus hepatocytes, myoblasts and fibroblasts” value [5]?
**A.** approximately 5 fold

**Q.** “VDLPQHGQ [phage clone displaying the synthetic peptide on major coat protein pVIII]” was tested. Which “ratio of output to input phage (apparent binding affinity) on RG2 glioma cells” value [4] did it give?
**A.** highest

**Q.** “DLTKSTAP [phage clone displaying the synthetic peptide on major coat protein pVIII]” was tested. Which “binding selectivity, RG2 glioma versus normal astrocytes” value [2] did it give?
**A.** approximately 14 fold

**Q.** What does the source list for “ELRGDSLP [phage clone displaying the synthetic peptide on major coat protein pVIII]”?
**A.** output/input phage ratio compared between ELRGDSLP and ESRGDSYA phage clones ([3]; lysis, FIGS. 5 and 11): significantly lower; binding to human glioma cell lines (in words) [6]: pronounced glioma-specific binding properties; signal with anti-integrin antibodies in phage-purified protein eluate [7]: did not produce any positive signal
